Experimental data published in patent publication US20230322761A1, “DEGRADATION OF BRUTON'S TYROSINE KINASE (BTK) BY CONJUGATION OF BTK INHIBITORS WITH E3 LIGASE LIGAND AND METHODS OF USE” (BEIGENE, LTD., priority 2020, published 2023).

Molecular target: T1, BTK (Homo sapiens, UniProt Q06187)
T1 construct: endogenous in cells; host or cells: TMD-8 cells
Test: BTK degradation in TMD-8 cells, HTRF assay after 6 h treatment
Type: cell-based
Conditions: for DC50: IC50 (DC50) of BTK degradation; for Dmax: TMD8, maximum percentage of inhibition (degradation)
Protocol: TMD-8 cells are treated with compounds diluted in 0.2% DMSO, dilution is done according to the following protocol: (1) make 500× stock solution in DMSO from 1 mM by 6-fold dilution, total 8 doses were included; (2) make 2× solution in cell culture medium by transferring 0.5 μl 500× stock solution into 125 μl medium; (3) 15 μl of 2× solution is added to cells and incubate for 6 h.
After 6 h treatment, add 10 μl 4×lysis buffer to each well; seal the plate and incubate 30 min at room temperature on a plate shaker; Once the cells are lysed, 16 μL of cell lysate are transferred to a PE 384-well HTRF detection plate; 4 μL of pre-mixed HTRF antibodies are added to each well; Cover the plate with a plate sealer, spin 1000 rpm for 1 min, Incubate overnight at room temperature; Read on BMG PheraStar with HTRF protocol (337 nm-665 nm-620 nm).
The IC50 (DC50) value of a compound can be obtained by fitting the following equation
Y=Bottom+(TOP−Bottom)/(1+((IC50/X)^hillslope))
Wherein, X and Y are known values, and IC50, Hillslope, Top and Bottom are the parameters obtained by fitting with software. Y is the inhibition percentage (calculated from the equation), X is the concentration of the compound; IC50 is the concentration of the compound when the 50% inhibition is reached. The smaller the IC50 value is, the stronger the inhibitory ability of the compound is. Vice versa, the higher the IC50 value is, the weaker the ability the inhibitory ability of the compound is; Hillslope represents the slope of the fitted curve, generally around 1*; Bottom represents the minimum value of the curve obtained by data fitting, which is generally 0%±20%; Top represents the maximum value of the curve obtained by data fitting, which is generally 100%±20%. The experimental data were fitted by calculating and analyzing with Dotmatics data analysis software.

T1 sequence (Q06187 whole entry): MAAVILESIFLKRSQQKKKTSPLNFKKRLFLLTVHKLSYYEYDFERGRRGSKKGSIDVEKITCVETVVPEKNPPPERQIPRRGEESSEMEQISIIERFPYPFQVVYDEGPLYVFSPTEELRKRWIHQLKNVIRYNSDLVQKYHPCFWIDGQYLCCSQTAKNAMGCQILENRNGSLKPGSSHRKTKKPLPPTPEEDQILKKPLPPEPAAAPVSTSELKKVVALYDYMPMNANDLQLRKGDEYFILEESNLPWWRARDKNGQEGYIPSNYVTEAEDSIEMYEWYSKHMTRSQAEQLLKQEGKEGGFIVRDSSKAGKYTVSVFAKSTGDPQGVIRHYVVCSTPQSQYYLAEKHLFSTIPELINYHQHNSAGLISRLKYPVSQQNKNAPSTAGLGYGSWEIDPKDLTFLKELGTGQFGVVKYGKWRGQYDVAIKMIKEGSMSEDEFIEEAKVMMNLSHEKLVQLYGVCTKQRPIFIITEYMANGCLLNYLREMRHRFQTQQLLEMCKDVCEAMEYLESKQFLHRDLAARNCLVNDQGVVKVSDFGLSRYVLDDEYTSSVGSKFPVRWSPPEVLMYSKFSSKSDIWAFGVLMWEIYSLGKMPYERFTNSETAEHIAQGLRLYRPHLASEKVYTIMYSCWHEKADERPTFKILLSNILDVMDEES

Compound | DC50 | Dmax
Cc1cc(-c2n[nH]c3ncc(-c4ccc(C5CCN(CCCOc6ccc(NC7CCC(=O)NC7=O)cc6)CC5)cc4)cc23)ccc1CNC(=O)c1noc(C(C)(C)C)n1 (stereo not shown) [Example 2, 5-(tert-butyl)-N-(4-(5-(4-(1-(3-(4-((2,6-dioxopiperidin-3-yl)amino)phenoxy)propyl)piperidin-4-yl)phenyl)-1H-pyrazolo[3,4-b]pyridin-3-yl)-2-methylbenzyl)-1,2,4-oxadiazole-3-carboxamide] | 0.953 nM | 96.2%
Cc1cc(-c2n[nH]c3ncc(-c4ccc(C5CCN(CC6CCN(c7ccc(N8CCC(=O)NC8=O)cc7)CC6)CC5)cc4)cc23)ccc1CNC(=O)c1nc(C(C)(C)C)no1 [Example 4, 3-(tert-butyl)-N-(4-(5-(4-(1-((1-(4-(2,4-dioxotetrahydropyrimidin-1(2H)-yl)phenyl)piperidin-4-yl)methyl)piperidin-4-yl)phenyl)-1H-pyrazolo[3,4-b]pyridin-3-yl)-2-methylbenzyl)-1,2,4-oxadiazole-5-carboxamide] | 1.19 nM | 96.7%
Cc1cc(-c2n[nH]c3ncc(-c4ccc(C5CCN(CCC6CCN(c7ccc(N8CCC(=O)NC8=O)cc7)CC6)CC5)cc4)cc23)ccc1CNC(=O)c1nc(C(C)(C)C)no1 [Example 5, 3-(tert-butyl)-N-(4-(5-(4-(1-(2-(1-(4-(2,4-dioxotetrahydropyrimidin-1(2H)-yl)phenyl)piperidin-4-yl)ethyl)piperidin-4-yl)phenyl)-1H-pyrazolo[3,4-b]pyridin-3-yl)-2-methylbenzyl)-1,2,4-oxadiazole-5-carboxamide] | 1.55 nM | 97%
Cc1cc(-c2n[nH]c3ncc(-c4ccc(C5CCN(CCc6ccc(C7CCC(=O)NC7=O)cc6)CC5)cc4)cc23)ccc1CNC(=O)c1nc(C(C)(C)C)no1 (stereo not shown) [Example 9, 3-(tert-butyl)-N-(4-(5-(4-(1-(4-(2,6-dioxopiperidin-3-yl)phenethyl)piperidin-4-yl)phenyl)-1H-pyrazolo[3,4-b]pyridin-3-yl)-2-methylbenzyl)-1,2,4-oxadiazole-5-carboxamide] | 1.9 nM | 100%

Now from value to compound:

DC50 | Dmax | Compound
0.978 nM | 96.7% | Cc1cc(-c2n[nH]c3ncc(-c4ccc(C5CCN(CC6CCN(c7ccc(N8CCC(=O)NC8=O)cc7)CC6)CC5)cc4)cc23)ccc1CNC(=O)c1noc(C(C)(C)C)n1 [Example 1, 5-(tert-butyl)-N-(4-(5-(4-(1-((1-(4-(2,4-dioxotetrahydropyrimidin-1(2H)-yl)phenyl)piperidin-4-yl)methyl)piperidin-4-yl)phenyl)-1H-pyrazolo[3,4-b]pyridin-3-yl)-2-methylbenzyl)-1,2,4-oxadiazole-3-carboxamide]
0.714 nM | 97.1% | Cc1cc(-c2n[nH]c3ncc(-c4ccc(C5CCN(CCc6ccc(C7CCC(=O)NC7=O)cc6)CC5)cc4)cc23)ccc1CNC(=O)c1noc(C(C)(C)C)n1 (stereo not shown) [Example 3, 5-(tert-butyl)-N-(4-(5-(4-(1-(4-(2,6-dioxopiperidin-3-yl)phenethyl)piperidin-4-yl)phenyl)-1H-pyrazolo[3,4-b]pyridin-3-yl)-2-methylbenzyl)-1,2,4-oxadiazole-3-carboxamide]
2.94 nM | 97% | Cc1cc(-c2n[nH]c3ncc(-c4ccc(C5CCN(CCc6ccc(N7CCC(=O)NC7=O)cc6)CC5)cc4)cc23)ccc1CNC(=O)c1noc(C(C)(C)C)n1 [Example 6, 5-(tert-butyl)-N-(4-(5-(4-(1-(4-(2,4-dioxotetrahydropyrimidin-1(2H)-yl)phenethyl)piperidin-4-yl)phenyl)-1H-pyrazolo[3,4-b]pyridin-3-yl)-2-methylbenzyl)-1,2,4-oxadiazole-3-carboxamide]
1.4 nM | 101% | Cc1cc(-c2n[nH]c3ncc(-c4ccc(CCN5CCC(c6ccc(C7CCC(=O)NC7=O)cc6)CC5)cc4)cc23)ccc1CNC(=O)c1noc(C(C)(C)C)n1 (stereo not shown) [Example 8, 3-(tert-butyl)-N-(4-(5-(4-(2-(4-(4-(2,6-dioxopiperidin-3-yl)phenyl)piperidin-1-yl)ethyl)phenyl)-1H-pyrazolol[3,4-b]pyridin-3-yl)-2-methylbenzyl)-1,2,4-oxadiazole-5-carboxamide]
